Earlier results, collected in patent US20150025027A1 (PHARTRIALS PERQUISAS FARMACÊUTICAS LTDA, priority 2012, published 2015).
Converted amounts (≈) assume the structure as drawn.

Tests used:
[1] = not given; remark: listed apart in the source
[2] = not given; remark: listed apart in the source
[3] = not given; remark: listed apart in the source
[4] = high-risk, obese population; vs. 10% in comparison group

SMILES | half-life (in vivo) | solubility in water [1] | log P [2] | weight loss in humans [3] | time to peak plasma concentration (after oral administration) | time to plasma concentrations in the state of equilibrium (days of treatment) | share of the dose administered per metabolite (each of six metabolites) | dose metabolized (forming six metabolites) | dose administered eliminated through the urine (in vivo) | oral bioavailability (oral) | cardiovascular outcomes (AMI, CVA, cardiorespiratory failure or death) in patients receiving the drug [4]
CC(NC(C)(C)C)C(=O)c1cccc(Cl)c1 (stereo not shown) [Bupropion, 1-(3-chlorophenyl)-2-{(1,1-dimethyl)-amino]-1-propanone] | 24 h | 312 mg/mL (≈ 1300 mM) | 3.6 | – | – | – | – | – | – | – | –
CC1(C)OC2CO[C@@]3(COS(N)(=O)=O)OC(C)(C)O[C@H]3C2O1 (stereo partly shown) [Topiramate] | – | 9.8 mg/mL (≈ 28.9 mM) | −0.7 | effective in weight loss | 2 h | 4 days | ≤ 5% | 30% | 70% | 80% | –
CC(C)CC(N(C)C)C1(c2ccc(Cl)cc2)CCC1 (stereo not shown) [sibutramine] | – | – | – | – | – | – | – | – | – | – | 11.4%
